What was measured:
Pin1 [1] = molecular target: Pin1 (Homo sapiens, UniProt Q13526, M130I); test: PPIase assay (Supplementary Fig. 2e); assay type: biochemical
Pin1 [2] = molecular target: T1, Pin1 (Homo sapiens, UniProt Q13526); test: biotin-ATO pulldown with immunoblot, dose-dependent, competed by ATO; assay type: binding
T1 construct: recombinant Pin1

O=[As]O[As]=O (centres unmarked) [ATO, Arsenic trioxide]
PPIase assay (Supplementary Fig. 2e) (Pin1 [1]): ATO dose-dependently inhibited the PPIase activity of Pin1 M130I, but not Pin1 M130V mutant

biotin-ATO
Kd (Pin1 [2]): 238 nM
